Converted amounts (≈) assume the structure as drawn.
How the values were obtained:
[1] = tested on: Streptococcus pyogenes; test: In vitro antibacterial activity against gram-positive organism Streptococcus pyogenes EES61; assay type: functional
[2] = In vivo efficacy against Pseudomonas aeruginosa 5007 after subcutaneous administration; assay type: functional
[3] = biological target: T1, DNA gyrase (Staphylococcus aureus) (UniProt P0A0K8+P20831); test: In vitro antibacterial activity against gram-positive organism Staphylococcus aureus ATCC 6538p; assay type: functional
[4] = In vitro antibacterial activity against gram-negative organism Pseudomonas aeruginosa DPHD-2862; assay type: functional
[5] = tested on: Pseudomonas aeruginosa; test: In vivo efficacy against Pseudomonas aeruginosa 5007 following p.o. administration.
[6] = biological target: T2, DNA gyrase (Escherichia coli) (UniProt P0AES6+P0AES4); test: In vivo efficacy against Escherichia coli JUHL by subcutaneous administration; assay type: functional, organism-based; conditions: Escherichia coli K-12
[7] = biological target: T1, DNA gyrase (Staphylococcus aureus); test: In vivo efficacy against Staphylococcus aureus NCTC-10649M after subcutaneous administration; assay type: functional, organism-based
[8] = biological target: T2, DNA gyrase (Escherichia coli); conditions: Escherichia coli K-12
Description: Concentration which causes 50% of the gyrase (Escherichia coli H560)-mediated maximal DNA cleavage.

[9] = biological target: T2, DNA gyrase (Escherichia coli); test: In vitro antibacterial against gram-negative organism Escherichia coli JUHL; assay type: functional; conditions: Escherichia coli K-12
[10] = biological target: T2, DNA gyrase (Escherichia coli); test: In vitro antibacterial activity against gram-negative organism Klebsiella pneumoniae ATCC 8045; assay type: functional
[11] = biological target: T2, DNA gyrase (Escherichia coli); test: In vitro antibacterial activity against gram-negative organism Prov. stuartii CMX-640; assay type: functional; conditions: Providencia stuartii
[12] = biological target: T2, DNA gyrase (Escherichia coli); test: In vitro antibacterial activity against gram-negative organism […] ATCC 13048; assay type: functional; conditions: Enterobacter aerogenes
[13] = biological target: T1, DNA gyrase (Staphylococcus aureus); test: In vitro antibacterial activity against gram-positive organism Staphylococcus aureus 1775; assay type: functional
[14] = biological target: T1, DNA gyrase (Staphylococcus aureus); test: In vitro antibacterial activity against gram-positive organism Staphylococcus aureus NCTC-10649M; assay type: functional
[15] = tested on: Streptococcus pneumoniae; test: (§1) In vivo efficacy against Strep. administration; assay type: functional
[16] = In vitro antibacterial activity against gram-negative organism Pseudomonas aeruginosa 5007; assay type: functional
[17] = biological target: T1, DNA gyrase (Staphylococcus aureus); test: In vivo efficacy against Staphylococcus aureus NCTC-10649M after oral administration; assay type: functional, organism-based
[18] = tested on: Streptococcus pneumoniae; test: In vivo efficacy against Strep. administered; assay type: functional
[19] = biological target: T2, DNA gyrase (Escherichia coli); test: In vitro antibacterial activity against gram-positive organism Enterococcus faecium ATCC 8043; assay type: functional
[20] = biological target: T2, DNA gyrase (Escherichia coli); test: In vivo efficacy against Escherichia coli JUHL after oral administration; assay type: functional, organism-based; conditions: Escherichia coli K-12
[21] = biological target: T2, DNA gyrase (Escherichia coli); test: In vitro antibacterial activity against gram-positive organism Streptococcus bovis A-5169; assay type: functional; conditions: Streptococcus equinus
[22] = tested on: Streptococcus pneumoniae; test: as §1; assay type: functional; remark: listed apart in the source
[23] = tested on: Enterococcus faecalis; test: Inhibitory activity against enterococcus faecalis Van B; assay type: functional
[24] = tested on: Enterococcus faecium; test: Inhibitory activity against enterococcus faecium Van A; assay type: functional
[25] = in vivo; conditions: rat, plasma, po, 5 mg/kg
[26] = Maximum plasma concentration in rats after an oral dose of 5 mg/kg; conditions: rat
[27] = physchem; conditions: phosphate buffer, pH 7.4
Description: Aqueous solubility in pH 7.4 phosphate buffer (0.05 M) at 37 degree C

[28] = in vivo; conditions: rat, po, 5 mg/kg
Description: Oral bioavailability in rat (dose 5 mg/kg)

[29] = tested on: Pseudomonas aeruginosa; test: In vivo efficacy against Pseudomonas aeruginosa 5007 by orally administered.; assay type: functional
[30] = Streptococcus pyogenes, read-out: MIC
[31] = Pseudomonas aeruginosa, sc, read-out: ED50
[32] = Pseudomonas aeruginosa, read-out: MIC
[33] = Streptococcus pneumoniae, read-out: ED50

MIC [1, 30]	MIC [3]	MIC [4, 32]	ED50 [5]	ED50 [6]	ED50 [7]	MIC [9]	MIC [10]	MIC [11]	MIC [12]	MIC [13]	MIC [14]	MIC [16, 32]	ED50 [17]	MIC [19]	MIC [21]	Compound	ED50 [2, 31]	CC50 [8]	ED50 [15]	ED50 [22]	further results
< 0.001 µg/mL	< 0.001 µg/mL	1.56 µg/mL (≈ 4.18 µM)	13 mg/kg	0.5 mg/kg	< 0.2 mg/kg	< 0.001 µg/mL	0.005 µg/mL (≈ 0.0134 µM)	0.2 µg/mL (≈ 0.536 µM)	0.01 µg/mL (≈ 0.0268 µM)	0.05 µg/mL (≈ 0.134 µM)	< 0.001 µg/mL	0.05 µg/mL (≈ 0.134 µM)	7.2 mg/kg	< 0.001 µg/mL	< 0.001 µg/mL	Cc1c(N2CC[C@@H]([C@H](C)N)C2)c(F)cn2c(=O)c(C(=O)O)cc(C3CC3)c12	1 mg/kg	0.3 µg/mL (≈ 0.803 µM)	< 3.1 mg/kg	–	ED50 [18]: < 1.3 mg/kg; ED50 [20]: 3.3 mg/kg
–	0.005 µg/mL (≈ 0.0144 µM)	3.1 µg/mL (≈ 8.95 µM)	–	–	1.5 mg/kg	0.02 µg/mL (≈ 0.0577 µM)	0.01 µg/mL (≈ 0.0289 µM)	0.39 µg/mL (≈ 1.13 µM)	0.1 µg/mL (≈ 0.289 µM)	0.39 µg/mL (≈ 1.13 µM)	0.005 µg/mL (≈ 0.0144 µM)	0.39 µg/mL (≈ 1.13 µM)	5.3 mg/kg	0.05 µg/mL (≈ 0.144 µM)	0.1 µg/mL (≈ 0.289 µM)	Cc1c(N2CC[C@H](O)C2)c(F)cn2c(=O)c(C(=O)O)cc(C3CC3)c12	–	–	> 10 mg/kg	> 2 mg/kg	–
0.02 µg/mL (≈ 0.0579 µM)	0.01 µg/mL (≈ 0.029 µM)	0.78 µg/mL (≈ 2.26 µM)	14.5 mg/kg	0.1 mg/kg	0.6 mg/kg	0.002 µg/mL (≈ 0.00579 µM)	0.005 µg/mL (≈ 0.0145 µM)	0.2 µg/mL (≈ 0.579 µM)	0.005 µg/mL (≈ 0.0145 µM)	0.78 µg/mL (≈ 2.26 µM)	0.01 µg/mL (≈ 0.029 µM)	0.05 µg/mL (≈ 0.145 µM)	3.4 mg/kg	0.02 µg/mL (≈ 0.0579 µM)	0.02 µg/mL (≈ 0.0579 µM)	Cc1c(N2CC[C@H](N)C2)c(F)cn2c(=O)c(C(=O)O)cc(C3CC3)c12 [ABT-719]	1.9 mg/kg	0.03 µg/mL (≈ 0.0869 µM)	–	1.6 mg/kg	half-life [25]: 1.2 h; Cmax [26]: 270 ng/mL; ED50 [15, 33]: 5.3 mg/kg; MIC [23]: 0.03 µg/mL (≈ 0.0869 µM); bioavailability [28]: 32%; ED50 [20]: 0.6 mg/kg; MIC [24]: 0.25 µg/mL (≈ 0.724 µM)

Further lines, the compound ahead of its results:

Compound	MIC [1, 30]	MIC [3]	MIC [4, 32]	ED50 [5]	ED50 [6]	ED50 [7]	MIC [9]	MIC [10]	MIC [11]	MIC [12]	MIC [13]	MIC [14]	MIC [16, 32]	ED50 [17]	MIC [19]	MIC [21]	ED50 [2, 31]	CC50 [8]	ED50 [15]	ED50 [22]	further results
Cc1c(N2C[C@@H]3CCCN[C@@H]3C2)c(F)cn2c(=O)c(C(=O)O)cc(C3CC3)c12 (stereo in doubt; 45n)	–	–	–	–	–	–	–	–	–	–	–	–	–	–	–	–	–	–	12.5 mg/kg	4.4 mg/kg	MIC [1]: 0.01 µg/mL (≈ 0.0259 µM); MIC [4]: 3.1 µg/mL (≈ 8.04 µM); MIC [23]: 0.06 µg/mL (≈ 0.156 µM); MIC [24]: 0.5 µg/mL (≈ 1.3 µM)
Cc1c(N2C[C@H]3CCCN[C@H]3C2)c(F)cn2c(=O)c(C(=O)O)cc(C3CC3)c12 (single isomer, unassigned)	0.05 µg/mL (≈ 0.13 µM)	0.05 µg/mL (≈ 0.13 µM)	12.5 µg/mL (≈ 32.4 µM)	> 50 mg/kg	> 1 mg/kg	6.1 mg/kg	0.05 µg/mL (≈ 0.13 µM)	0.005 µg/mL (≈ 0.013 µM)	1.56 µg/mL (≈ 4.05 µM)	0.05 µg/mL (≈ 0.13 µM)	0.78 µg/mL (≈ 2.02 µM)	0.05 µg/mL (≈ 0.13 µM)	0.78 µg/mL (≈ 2.02 µM)	29.3 mg/kg	0.1 µg/mL (≈ 0.259 µM)	0.05 µg/mL (≈ 0.13 µM)	> 8 mg/kg	–	–	–	ED50 [15, 33]: 32.2 mg/kg; ED50 [18, 33]: > 8 mg/kg
Cc1c(N2C[C@@H](N)C[C@@H]2C)c(F)cn2c(=O)c(C(=O)O)cc(C3CC3)c12	0.05 µg/mL (≈ 0.139 µM)	0.01 µg/mL (≈ 0.0278 µM)	3.1 µg/mL (≈ 8.63 µM)	–	–	–	0.005 µg/mL (≈ 0.0139 µM)	0.01 µg/mL (≈ 0.0278 µM)	0.78 µg/mL (≈ 2.17 µM)	0.05 µg/mL (≈ 0.139 µM)	1.56 µg/mL (≈ 4.34 µM)	0.01 µg/mL (≈ 0.0278 µM)	0.2 µg/mL (≈ 0.556 µM)	–	0.1 µg/mL (≈ 0.278 µM)	0.05 µg/mL (≈ 0.139 µM)	–	0.2 µg/mL (≈ 0.556 µM)	–	–	half-life [25]: 1.6 h; Cmax [26]: 740 ng/mL; solubility [27]: 70 µg/mL (≈ 195 µM); bioavailability [28]: 44%
Cc1c(N2C[C@@H]3CCN[C@@H]3C2)c(F)cn2c(=O)c(C(=O)O)cc(C3CC3)c12 (stereo in doubt; (S,S)45o)	–	–	–	–	–	–	–	–	–	–	–	–	–	–	–	–	–	–	11.2 mg/kg	–	ED50 [2]: 18 mg/kg; MIC [4]: 3.1 µg/mL (≈ 8.35 µM); MIC [16]: 0.2 µg/mL (≈ 0.538 µM); ED50 [18]: 2.3 mg/kg; ED50 [29]: >50 mg/kg
Cc1c(N2C[C@@H](N)[C@@H](C)C2)c(F)cn2c(=O)c(C(=O)O)cc(C3CC3)c12	0.05 µg/mL (≈ 0.139 µM)	0.02 µg/mL (≈ 0.0556 µM)	1.56 µg/mL (≈ 4.34 µM)	–	–	–	0.005 µg/mL (≈ 0.0139 µM)	0.005 µg/mL (≈ 0.0139 µM)	0.78 µg/mL (≈ 2.17 µM)	0.02 µg/mL (≈ 0.0556 µM)	0.78 µg/mL (≈ 2.17 µM)	0.02 µg/mL (≈ 0.0556 µM)	0.1 µg/mL (≈ 0.278 µM)	–	0.05 µg/mL (≈ 0.139 µM)	0.02 µg/mL (≈ 0.0556 µM)	–	0.06 µg/mL (≈ 0.167 µM)	–	–	half-life [25]: 2.1 h; Cmax [26]: 170 ng/mL; bioavailability [28]: 23%
